Assay results as given in a melting point compilation (Tetko et al.; mined from patent text by program, amines drawn as free bases though some values may be those of a salt).

Structure (SMILES) | melting point
CC(C)(C)C(=O)Nc1ccncc1C(=NN)c1ccccc1F | 78 to 82 °C
O=C(/C=C/C=C(c1ccc(Cl)cc1)c1ccc(Cl)cc1)NCCCCc1cccnc1 | 146 to 147 °C
C[C@H](NC(=O)COc1ccc2c(-c3ccccc3)nn(C)c2n1)c1ccccc1 | 55 to 56 °C
N#CC(C(=O)c1cc(F)c(Cl)cc1Cl)=C(N)C1CC1 | 95 °C
CCOC(=O)C1CCC2(C)C(=CC(O)C3C2CCC2(C)C(O)CCC32)C1 (centres undefined) | 170 to 171 °C
O=C(Nc1cc(-c2nc(-c3ccccc3)c[nH]2)ccn1)c1ccccc1 | 265 to 267 °C
COc1ccc2c(c1)CNCC(=O)N2 | 148 °C
O=Cc1cc([N+](=O)[O-])c(Cl)cc1Cl | 61 to 63 °C
CCOC(=O)c1cc(-c2cc(Br)cc(Br)c2)cnc1C | 100 to 102 °C
CC1=C(C(=O)OCOC(=O)C(C)(C)C)C(c2cccc([N+](=O)[O-])c2)C(C(=O)OCOC(=O)C(C)(C)C)=C(C)N1 | 124 to 125 °C
CC1(C)CCCC(C)(C)N1c1nc(NCCO)nc(NCCO)n1 | 147 to 148 °C
COc1cc2c(=O)c(S(C)=O)nn(C)c2cc1OC (centres undefined) | 262 to 264 °C
COC(=O)C(=O)c1ccc(OCCCCSc2ccc3ccccc3c2)cc1 | 64 to 65 °C
COC(=O)c1ccc2scc(Br)c2c1 | 93 to 94 °C
O=C(c1ccc(F)cc1)C1CCN(CCCn2c(=O)sc3ccccc32)CC1 | 83 °C
COC(=O)c1c(-c2ccccc2Cl)c2cc(C)c(C)cc2n(C)c1=O | 202 to 203 °C
Cc1ccn(-c2ccc(S(N)(=O)=O)cc2)c1-c1ccc(F)cc1 | 187 to 188 °C
O=C(O)Cn1cccc1 | 88 to 90 °C
COCc1sc(N)nc1C | 132 to 135 °C
COC(=O)c1ccc(-c2nc3cc(C(=O)OC)ccc3o2)cc1 | 195 to 210 °C
O=C1c2ccccc2C(=O)N1CCSCCc1ccco1 | 53 to 55 °C
CC1=C(C(=O)OCCN(Cc2ccccc2)Cc2ccccc2)C(c2ccccc2C(F)(F)F)c2c(ccnc2OC(C)C)N1 (centres undefined) | 132 to 133 °C
CNC(c1ccc(OC)cc1)c1csc(S(N)(=O)=O)c1 (centres undefined) | 155 to 156 °C
CCOC(=O)COCCc1cc2cc(Cl)ccc2n1S(=O)(=O)c1ccccc1 | 60 to 62 °C
CCCCCC(=O)C=Cc1ccc(CC(=O)O)s1 | 51 °C

Structure (SMILES) | melting point
CC(C)C(=O)O[C@@H]1C[C@H](C(=O)Nc2ccc(N3CCOCC3=O)cc2)N(C(=O)Nc2ccc(Cl)cc2)C1 | 129 °C
Cc1c[nH]c2ccc(-c3nn(C(C)c4oc5ccccc5c(=O)c4-c4cccc(F)c4)c4ncnc(N)c34)cc12 (centres undefined) | 171 to 173 °C
CCOC(=O)c1cc(Cl)c(-n2nc(CC)c(C(N)=O)c2N)c(Cl)c1 | 194 to 196 °C
CCCCCCCCCCCCc1cc(NC(=O)Nc2c(C(C)C)cccc2C(C)C)on1 | 112 to 114 °C
CC(=O)N1CCc2ccc(C(O)CCCN3CCC(c4ccc(Cl)cc4)CC3)cc2CC1 (centres undefined) | 113 to 114 °C
Cc1noc(C)c1S(=O)(=O)n1cnc2cnccc21 | 130 to 135 °C
CC1(C)[C@@H](C(=O)Nc2ccncc2)[C@@H]1c1ccc(S(N)(=O)=O)cc1 (relative stereo) | 270 to 274 °C
CC(=O)OCCCCCCOc1ccc([N+](=O)[O-])c(C=O)c1 | 42 to 43 °C
COc1ccccc1N1CCN(CCc2ccc3c(c2)oc(=O)n3C)CC1 | 137 to 138 °C
CC(=O)Oc1c(C2CCN(CCCCNC(=O)c3ccc(-c4ccc(C#N)cc4)cc3)CC2)ccc2c1CCCC2 | 140 to 150 °C
O=c1c2ccc(Cl)cc2cc2n1CCCS2 | 109 to 110 °C
CC(C)(C)NC(=O)C(Cc1ccc(OCc2ccccc2)cc1)NC(=O)c1ccc(C(C)(C)C)cc1 (centres undefined) | 124 to 131 °C
CCOC(=O)C(Cl)=Cc1cc(Cl)ccc1-n1c(=O)c(Cl)c(C(F)(F)F)n(C)c1=O | 160 to 164 °C
Cc1cc(=O)c2[nH]nc(C)c2[nH]1 | > 346 °C
CC1Cc2cccc(S(=O)(=O)NC(C)(C)C)c2S1 (centres undefined) | 97 to 98 °C
Clc1ccc2onc(Cl)c2c1 | 43 to 44 °C
CNC(=O)c1ccc2[nH]cc(C3=CCN(C)CC3)c2c1 | 125 to 135 °C
O=C(O)/C=C/c1cn(-c2cc(C(F)(F)F)cc(C(F)(F)F)c2)nc1-c1cccc(Cl)c1 | 217 to 221 °C
Cc1ccc(=S)n(-c2cccc(C(F)(F)F)c2)c1 | 96 °C
CCOC(=O)C=Cc1ccccc1NC(=O)c1ccc(OCCCCc2ccccc2)cc1 | 129 to 131 °C
C=CCc1c(OCCCOc2ccc3c(c2)OC(C(=O)O)CC3)ccc(C(C)=O)c1OC (centres undefined) | 85.5 °C
CC1Cc2ccc(Cl)cc2C(c2ccc([N+](=O)[O-])cc2)=NN1C(N)=O (centres undefined) | 223 to 234 °C
O=C(NCCc1ccc(OCc2ccccc2)c(OCc2ccccc2)c1CCc1cccc(OCc2ccccc2)c1)C(F)(F)F | 142 to 144 °C
O=[N+]([O-])c1ccc(OCc2ccc(C(F)(F)F)cc2)cc1 | 80.5 to 81.5 °C
COC(=O)CC[C@@H](CF)NC(=O)OCc1ccccc1 | 46 to 48 °C

Structure (SMILES) | melting point
CC(C)NC(=O)OCC(=O)c1cccc(Br)c1 | 125 to 129 °C
COC(=O)c1cc2sccc2nc1C(=O)OC | 121 to 124 °C
CCCc1c(C)c(NC(=O)CC(C)(C)C)c(C)c2c1OCC2c1ccc(C(C)C)cc1 (centres undefined) | 145 to 148 °C
O=C(c1ccc(Cl)cc1)c1c(N2C(=O)c3ccccc3C2=O)sc(-c2ccccc2)c1CBr | 160 to 161 °C
CC(Cc1c[nH]c2ccccc12)(NC(=O)OC1C2CC3CC(C2)CC1C3)C(=O)NC(CC(=O)O)Cc1ccc(N)cc1 (centres undefined) | 115 to 120 °C
CSc1c(CC(=O)O)cc(C)c2c3ccccc3n(Cc3ccccc3)c12 | 219 to 220 °C
N#Cc1ccc(Cn2cncc2CCOc2ccc3c(c2CCc2ccccc2)CCCC3=O)cc1 | 179 to 180 °C
NC(=O)CNC(=O)c1cc(-c2cccc3cc(Cc4cc(F)cc(Cl)c4)sc23)ccc1F | 129 to 130 °C
CSc1ccc(C2=C(c3ccc(CO)cc3)CCC2)cc1 | 82 to 85 °C
COc1cc2c(=O)cc3c4ccccc4sn3c2c(OC)c1OC | 196 °C
N#Cc1ccc(OS(N)(=O)=O)cc1 | 154 to 156 °C
Cc1nc(N2C(=O)N(CCc3ccc(F)cc3)CC2O)sc1C(=O)NCc1cccnc1 (centres undefined) | 182 to 184 °C
COC(=O)c1c[nH]c(C=O)c1 | 97 to 99 °C
CC(=O)OCC1CCn2c(c(C3=C(c4c[nH]c5ccccc45)C(=O)NC3=O)c3ccccc32)C1 (centres undefined) | 264 to 265 °C
Cc1oc(-c2ccccc2)nc1CCOc1ccc(CC(Nc2ccccc2C(=O)c2ccccc2C(=O)O)C(=O)O)cc1 (centres undefined) | 107 to 110 °C
N#Cc1cnn(-c2ccc(Cl)nn2)c1N | 250 to 252 °C
CC1CCCC(C)N1CCCC(O)(c1ccccc1)c1ccccc1 (centres undefined) | 90 to 91 °C
O=C(C#Cc1ccc(CN2CCCCC2)cc1)Nc1ccc(-c2ccc(Cl)cc2)cc1 | 180 °C
O=c1[nH]c2ncncc2s1 | > 108 °C
COc1ccc(C(=O)O)c2c1OC(C)(C)C2 | 147 to 149 °C
CNC(=C[N+](=O)[O-])NCCCCCCCCCCCCNC(C[N+](=O)[O-])NCCSCc1ccc(CN(C)C)o1 (centres undefined) | 78 to 80 °C
COCOc1c2c(cc3ccccc13)N(C(=O)OC(C)(C)C)CC2CCl (centres undefined) | 99 to 101 °C
CC(C)(C)c1ccc2c(c1)C([Si](C)(C)C)c1cc(C(C)(C)C)ccc1-2 | 144 to 146 °C
CCC(CC)/C(N)=C(\C#N)C(=O)Cl | 102 °C
CCOc1ccc(S(C)(=O)=O)cc1C(=O)Nc1c(C(N)=O)nn(CCOC)c1CC | 190 to 192 °C

Structure (SMILES) | melting point
O=C(O)/C=C/c1cccc(OCCC(c2ccccc2)(c2ccccc2)c2ccccc2)c1 | 104 to 109 °C
CCOC(=O)c1cc(-c2ccccc2)n(-c2cccc(C(N)=O)c2)c1C | 238 to 239 °C
CSc1cc2cc(C)ccc2cc1C=Cc1cc2ccc(C)cc2cc1SC | 185 to 186 °C
COc1ccc(C2Cc3cc(OC)c(OC)c(OC)c3C2=O)cc1 (centres undefined) | 104 to 106 °C
Oc1ccc(Nc2ncc3ncc(-c4ccc(O)cc4)cc3n2)cc1 | > 268 °C
C=CCC(CC=C)(CC=C)c1ccc(-c2nc3cc(C#N)c(C#N)cc3n2CCC)cc1 | 132 to 134 °C
Nc1cccnc1Nc1cccc(-c2cccnc2)c1 | 159 to 160 °C
COc1noc2c(C)cc(C#CCCN3CCOC3=O)cc12 | 94 to 95 °C
COC(=O)c1c(C)cc2cc(OC)c(OC)cc2c1-c1ccnc(Cl)c1 | 133 to 136 °C
O=C(O)c1c(Cl)nc(-c2ccccc2)c2ccccc12 | 208 °C
CN(C)S(=O)(=O)c1cccc(Cl)n1 | 53 to 55 °C
CN(Cc1ccc(NC(=O)C2=Cc3cc(Br)ccc3N(C=O)CC2)cc1)C1CCOCC1 | 173 to 175 °C
O=c1c(-c2ccccc2Cl)coc2cc(OCc3nnn[nH]3)cc(Cl)c12 | 192 to 195 °C
COc1cc2c(cc1OC)-c1c(C#N)sc(=NC(=O)c3ccccc3)n1CC2 | 274 to 276 °C
CN1CC(CCCl)Oc2cc3ccccc3cc2C1=S (centres undefined) | 166 to 168 °C
CC(=O)CSc1nnnn1C | 31 °C
CC(C)(C)OC(=O)NCCNC(=O)c1nocc1-c1ccccc1 | 170 to 171 °C
Oc1ccc2ccc(OCc3nc4ccccc4s3)cc2c1 | 205 to 207 °C
Cc1c(NC(=O)c2ccc(OCc3ccc(F)cc3)cc2)ccc2cc(CN3CCCC3)cnc12 | 177 to 178 °C
N#Cc1ccc(N(Cc2ccc(OS(N)(=O)=O)c(F)c2)n2cnnc2)cc1-c1ccccc1 | 198 to 200 °C
O=C(Nc1ccccc1)C1Cc2cc(Br)cc3[nH]c(=O)c(=O)n1c23 (centres undefined) | > 300 °C
CN1C(=O)CCC2=C1Cc1cc(C(=O)c3ccc(Cl)c(S(N)(=O)=O)c3)ccc12 | 259 to 260 °C
CCOC(=O)c1ccc(C(=O)OCC)nc1 | 46 to 47 °C
CN(C)c1ccc2nc(N)c(C#N)c(NCc3ccccc3)c2c1 | 265 °C
